In patent US20160024414A1, “IONIC LIQUIDS AS L[…] BASE STOCKS, COBASE STOCKS AND MULTI[…]” ([…] AND ENGINEERING COMPANY, priority 2012, published 2016):

Columns and labels:
[1] = Kinematic viscosity (ASTM D-445); assay type: physicochemical
Method: The kinematic viscosity (Kv) of the ionic liquid products of Examples 2-5, 7 and 8 was measured using ASTM standards D-445 and reported at temperatures of 100° C. (Kv at 100° C.) or 40° C. (Kv at 40° C.). The viscosity index (VI) was measured according to ASTM standard D-2270 using the measured kinematic viscosities for each product.

In the case of “1-butyl-3-hexylimidazolium bis(2-ethylhexyl) phosphate [Example 7]”, the “solubility in AN (alkylated naphthalene)” value (solvent: AN (alkylated naphthalene)) is reported as 5%.
In the case of “dihexadecyldimethylammonium bis(2-ethylhexyl) phosphate [Example 8]”, the “solubility in PAO4 (in words)” value (solvent: PAO4) is reported as “soluble”.
In the case of “tetradecylammonium bis(2-ethylhexyl) phosphate [Example 4]”, the “Kv100 (kinematic viscosity at 100° C.)” value [1] is reported as over 150 cSt.
